# Patent publication US10533006B2, “Nitrogen-containing heterocycle and carbocycle derivatives having TrkA inhibitory activity” (Shionogi & Co., Ltd., priority 2016, dated 2020)
# Read-outs that look alike come from different tables or passages of the source.
# Experiments:
# hERG channel (IKr) = target: T1, hERG channel (IKr) (Homo sapiens, UniProt Q12809); experiment: hERG test (whole cell patch clamp, IKr); type: cell-based; conditions: CHO cells expressing hERG channel, pH 7.4, 30 μmol/L of test compound, read-out: % inhibition of tail peak current (IKr)
# T1 construct: expressed in transfected cells; host or cells: CHO cells
# Text: For the purpose of assessing risk of an electrocardiogram QT interval prolongation of the compound of the present invention, effects of the compound of the present invention on delayed rectifier K+ current (IKr), which plays an important role in the ventricular repolarization process, was studied using CHO cells expressing human ether-a-go-go related gene (hERG) channel.
# After a cell was retained at a membrane potential of −80 mV by whole cell patch clamp method using an automated patch clamp system (QPatch; Sophion Bioscience A/S) and gave a leak potential of −50 mV, IKr induced by depolarization pulse stimulation at +20 mV for 2 seconds, and further, repolarization pulse stimulation at −50 mV for 2 seconds, was recorded. A vehicle, which is the 0.1-0.3% dimethyle sulfoxide solution in extracellular solution (NaCl: 145 mmol/L, KCl: 4 mmol/L, CaCl2: 2 mmol/L, MgCl2: 1 mmol/L, glucose: 10 mmol/L, HEPES (4-(2-hydroxyethyl)-1-piperazineethanesulfonic acid): 10 mmol/L, pH7.4), or the compound of the present invention had been dissolved at an objective concentration in the extracellular solution is applied to the cell at room temperature for 7 minutes or more. From the recording IKr, an absolute value of the tail peak current was measured based on the current value at the resting membrane potential using analysis software (QPatch assay software; Sophion Bioscience A/S). Further, the % inhibition of tail peak current for the compound of the present invention relative to the tail peak current after application of the vehicle is calculated to assess influence of the compound of the present invention on IKr.
# CYP3A4 = target: T2, CYP3A4 (Homo sapiens, UniProt P08684); experiment: CYP3A4 (MDZ) MBI test; type: in vitro ADME; conditions: pooled human liver microsomes, midazolam 1-hydroxylation, preincubation 0 vs 30 min
# T2 construct: from tissue; host or cells: pooled human liver microsomes
# Procedure: CYP3A4 (MDZ) MBI test is a test of investigating mechanism based inhibition potential on CYP3A4 by the enhancement of inhibitory degree of a metabolic reaction caused by the compound of the present invention. CYP3A4 inhibition was evaluated using pooled human liver microsomes by 1-hydroxylation reaction of midazolam (MDZ) as a marker reaction.
# The reaction conditions are as follows: substrate, 10 μmol/L MDZ; pre-reaction time, 0 or 30 minutes; substrate reaction time, 2 minutes; reaction temperature, 37° C.; protein content of pooled human liver microsomes, at pre-reaction time 0.5 mg/mL, at reaction time […] (at 10-fold dilution); concentrations of the compound of the present invention, 1, 5, 10, 20 μmol/L (four points).
# Pooled human liver microsomes and a solution of the compound of the present invention in K-Pi buffer (pH 7.4) as a pre-reaction solution were added to a 96-well plate at the composition of the pre-reaction. A part of pre-reaction solution was transferred to another 96-well plate, and 1/10 diluted by K-Pi buffer containing a substrate. NADPH as a co-factor was added to initiate a reaction as a marker reaction (preincubation 0 min). After a predetermined time of a reaction, methanol/acetonitrile=l/1 (v/v) solution was added to stop the reaction. In addition, NADPH was added to a remaining pre-reaction solution to initiate a pre-reaction (preincubation 30 min). After a predetermined time of a pre-reaction, a part was transferred to another 96-well plate, and 1/10 diluted by K-Pi buffer containing a substrate to initiate a reaction as a marker reaction. After a predetermined time of a reaction, methanol/acetonitrile=1/1 (v/v) solution was added to stop the reaction. After centrifuged at 3000 rpm for 15 minutes, 1-hydroxymidazolam in the supernatant was quantified by LC/MS/MS.
# The sample adding DMSO as a solvent to a reaction system instead of a solution dissolving the compound of the present invention was adopted as a control (100%). Remaining activity (%) was calculated at each concentration of the compound of the present invention compared to a control, and IC value was calculated by reverse-presumption by a logistic model using a concentration and an inhibition rate. Shifted IC value was calculated as “IC of preincubation at 0 min/IC of preincubation at 30 min”. When a shifted IC is 1.5 or more, this is defined as positive. When a shifted IC is 1.0 or less, this is defined as negative.
# human TrkA = target: T3, human TrkA (Homo sapiens, UniProt P04629); experiment: Human TrkA inhibition assay; type: biochemical; conditions: human TrkA phosphorylation inhibition, ATP 500 μmol/L
# T3 construct: purchased Lifetechnologies PV3144
# Procedure, shortened: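 Human TrkA (1 nmol/L final) preincubated 15 min with compound, then FL-peptide 27 (1.5 μmol/L) and ATP (500 μmol/L) added; 120 min at 37 °C in HEPES/MgCl2/DTT buffer. Mobility-shift measurement of phosphorylated vs non-phosphorylated substrate; IC50 by logistic regression over 3-fold dilution series.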
# T2 sequence (P08684 whole entry): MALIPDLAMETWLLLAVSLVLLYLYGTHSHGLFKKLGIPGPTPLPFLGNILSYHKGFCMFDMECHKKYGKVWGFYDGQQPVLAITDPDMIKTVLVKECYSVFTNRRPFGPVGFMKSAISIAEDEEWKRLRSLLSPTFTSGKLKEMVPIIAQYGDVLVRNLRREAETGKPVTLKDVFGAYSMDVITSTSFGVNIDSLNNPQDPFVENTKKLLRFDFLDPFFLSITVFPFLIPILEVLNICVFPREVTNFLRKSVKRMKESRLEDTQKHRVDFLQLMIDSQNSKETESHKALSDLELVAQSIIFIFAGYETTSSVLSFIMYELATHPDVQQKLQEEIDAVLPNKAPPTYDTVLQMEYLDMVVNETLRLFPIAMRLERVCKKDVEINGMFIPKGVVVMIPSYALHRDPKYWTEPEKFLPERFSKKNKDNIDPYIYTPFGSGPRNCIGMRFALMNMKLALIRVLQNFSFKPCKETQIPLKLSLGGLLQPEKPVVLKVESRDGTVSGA
# T3 sequence (P04629 33-796): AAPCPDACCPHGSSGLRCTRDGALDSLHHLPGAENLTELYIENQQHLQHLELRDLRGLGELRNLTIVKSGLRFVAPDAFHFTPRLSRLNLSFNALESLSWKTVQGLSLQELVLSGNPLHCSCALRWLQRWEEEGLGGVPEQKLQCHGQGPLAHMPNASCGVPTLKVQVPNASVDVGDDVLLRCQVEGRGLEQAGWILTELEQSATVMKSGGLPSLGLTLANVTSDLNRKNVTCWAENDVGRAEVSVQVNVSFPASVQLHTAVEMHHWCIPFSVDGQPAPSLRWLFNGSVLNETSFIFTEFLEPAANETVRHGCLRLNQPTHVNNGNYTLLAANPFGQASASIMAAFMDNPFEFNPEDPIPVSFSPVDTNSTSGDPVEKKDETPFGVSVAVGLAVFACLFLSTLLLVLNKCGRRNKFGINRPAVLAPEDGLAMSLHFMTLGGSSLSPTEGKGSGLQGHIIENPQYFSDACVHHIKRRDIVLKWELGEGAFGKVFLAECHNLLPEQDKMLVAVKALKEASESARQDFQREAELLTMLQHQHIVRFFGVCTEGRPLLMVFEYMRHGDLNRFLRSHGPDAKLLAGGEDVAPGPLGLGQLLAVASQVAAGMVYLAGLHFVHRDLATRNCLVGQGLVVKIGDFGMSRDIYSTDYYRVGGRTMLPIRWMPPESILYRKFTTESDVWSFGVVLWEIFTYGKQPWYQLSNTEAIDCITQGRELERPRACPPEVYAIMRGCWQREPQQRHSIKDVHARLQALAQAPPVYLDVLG
# T1 sequence (Q12809 whole entry): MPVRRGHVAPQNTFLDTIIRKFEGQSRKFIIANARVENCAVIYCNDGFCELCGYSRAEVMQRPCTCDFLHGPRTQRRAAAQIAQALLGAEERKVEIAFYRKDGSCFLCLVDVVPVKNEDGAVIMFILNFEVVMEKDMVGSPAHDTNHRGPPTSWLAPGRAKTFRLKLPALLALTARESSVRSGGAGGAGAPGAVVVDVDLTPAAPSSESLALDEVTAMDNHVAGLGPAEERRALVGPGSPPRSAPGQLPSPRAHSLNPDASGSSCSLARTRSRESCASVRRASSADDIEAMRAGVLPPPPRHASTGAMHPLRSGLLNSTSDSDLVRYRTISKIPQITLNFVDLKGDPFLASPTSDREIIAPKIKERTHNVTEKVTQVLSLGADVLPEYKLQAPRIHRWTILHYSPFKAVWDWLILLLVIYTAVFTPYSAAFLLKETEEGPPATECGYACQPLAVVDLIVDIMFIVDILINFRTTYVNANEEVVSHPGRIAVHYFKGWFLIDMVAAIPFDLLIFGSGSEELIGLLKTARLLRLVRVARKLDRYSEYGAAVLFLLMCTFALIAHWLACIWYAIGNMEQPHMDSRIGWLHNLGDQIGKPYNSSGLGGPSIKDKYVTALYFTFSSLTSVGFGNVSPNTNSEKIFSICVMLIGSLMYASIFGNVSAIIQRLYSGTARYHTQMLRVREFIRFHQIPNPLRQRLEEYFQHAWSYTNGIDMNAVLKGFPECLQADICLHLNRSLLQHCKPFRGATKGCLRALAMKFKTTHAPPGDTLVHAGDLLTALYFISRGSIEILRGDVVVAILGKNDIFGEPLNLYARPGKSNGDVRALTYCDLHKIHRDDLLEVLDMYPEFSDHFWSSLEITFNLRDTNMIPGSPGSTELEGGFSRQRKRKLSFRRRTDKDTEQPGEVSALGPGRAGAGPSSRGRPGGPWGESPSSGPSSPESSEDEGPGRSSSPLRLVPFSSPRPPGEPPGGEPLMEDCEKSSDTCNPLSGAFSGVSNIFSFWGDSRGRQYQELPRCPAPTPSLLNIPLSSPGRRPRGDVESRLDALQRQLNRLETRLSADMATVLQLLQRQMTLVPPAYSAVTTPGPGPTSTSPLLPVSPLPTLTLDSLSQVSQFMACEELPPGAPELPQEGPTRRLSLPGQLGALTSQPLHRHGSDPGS
IC50 (human TrkA; read-out: IC50_nM),IC50 (human TrkA; read-out: IC50 value),SMILES,inhibition at 30 μmol/L (hERG channel (IKr)),mechanism based inhibition of CYP3A4 (shifted IC) (CYP3A4)
< 100 nM,–,COCCN1C[C@@H](NC(=O)Nc2c(C)c(-c3cnn(C)c3)nn2-c2ccccc2)[C@H](c2cnc(F)c(F)c2)C1 (racemic) [Compound I-5],35.3%,"Negative (When a shifted IC is 1.0 or less, this is defined as negative)"
< 100 nM,–,COCC[C@@H]1C[C@@H](NC(=O)Nc2c(C)c(-c3cnn(C)c3)nn2-c2ccccc2)[C@H](c2ccnc(F)c2)N1C [Compound I-68],12.8%,"Negative (When a shifted IC is 1.0 or less, this is defined as negative)"
–,1.8 nM,COCC[C@@H]1C[C@@H](NC(=O)Nc2c(C)c(-c3cnc(C)nc3)nn2-c2ccccc2)[C@H](c2ccnc(F)c2)C1 [Compound I-164],–,"Negative (When a shifted IC is 1.0 or less, this is defined as negative)"
–,0.92 nM,COCC[C@@H]1C[C@@H](NC(=O)Nc2c(C)c(-c3cnc(C)nc3)nn2-c2ccccc2)[C@H](c2ccnc(F)c2)N1C [Compound I-173],–,"Negative (When a shifted IC is 1.0 or less, this is defined as negative)"
